From patent US20230172867A1, “A METHOD FOR TREATING CANCER WITH AN ORAL DOSAGE FORM OF AN FGFR4 INHIBITOR” (Eisai R&D Management Co., Ltd., priority 2020, published 2023)
Like-named read-outs stand apart in the source and are kept apart here.

Assay: Pharmacokinetic measurements of H3B-6527 capsules in patients (trial NCT02834780), plasma LC-MS/MS
Type: in vivo, human
Details: human, plasma, oral; for AUC: read-out: AUC, geometric mean (CV%); for Cmax: read-out: Cmax, geometric mean (CV%)
From the text: A description of the first in human clinical trial for H3B-6527 can be found at the ClinicalTrials.gov by searching for trial identifier NCT02834780. In summary, the trial included a study population having the following characteristics: Adult patients ≥18 years old with advanced HCC or ICC; Progression after at least one prior therapy; ECOG score of 0 or 1; Well compensated liver function; FGF19-positive (dose expansion phase only); Excluded if patients have significant active infections [except hepatitis B virus (HBV) and hepatitis C virus (HCV)], gastric or esophageal varices, or previous FGF19-FGFR4 targeted therapy.
Blood samples are collected at the planned time points from each patient and centrifuged. The plasma portion of each sample is then transferred to a K2EDTA tube, which is then shipped to a bioanalytical lab for concentration measurement using LC-MS/MS. The concentration data are then analyzed using Phoenix® WinNonlin software to obtain PK parameters. The obtained PK parameters are further summarized using analytical software.
Drug Administration and Dosage for Dose Escalation: H3B-6527 was administered orally QD or BID on a 21-day cycle. […] Patients in dose escalation phase were treated regardless of FGF19 status. Response determined by RECIST 1.1/modified RECIST every 6 weeks
Further collection and collation of the PK results of the trial of Example 2 at a later point in time are reflected in the following Table 5:
The results of further analysis of the PK data of the trial of Example 2 with the actual date and time of the dose administration and PK sampling after QC, an update from the results of a preliminary analysis with the nominal (i.e. planned) dosing/PK sampling date/time presented in Example 3, are reflected in the following Table 6. In this example the number of patients from which each PK parameter was calculated is shown, rather than the total number of patients receiving a particular dose and regimen as in Table 5.

[1] = 600 mg, 600 mg QD, fed, Day 8, Table 6, actual times after QC
[2] = 700 mg, 700 mg BID, fed, Day 1, Table 6, actual times after QC
[3] = 700 mg, 700 mg BID, fed, Day 8, Table 6, actual times after QC
[4] = 1000 mg, 1000 mg QD, fasted, Day 1, Table 6, actual times after QC
[5] = 1000 mg, 1000 mg QD, fasted, Day 8, Table 6, actual times after QC
[6] = 1000 mg, 1000 mg QD, fed, Day 1, Table 6, actual times after QC
[7] = 1000 mg, 1000 mg QD, fed, Day 8, Table 6, actual times after QC
[8] = 1400 mg, 1400 mg QD, fasted, Day 1, Table 6, actual times after QC
[9] = 1400 mg, 1400 mg QD, fasted, Day 8, Table 6, actual times after QC
[10] = 1400 mg, 1400 mg QD, fed, Day 1, Table 6, actual times after QC
[11] = 1400 mg, 1400 mg QD, fed, Day 8, Table 6, actual times after QC
[12] = 2000 mg, 2000 mg QD, fed, Day 1, Table 6, actual times after QC
[13] = 2000 mg, 2000 mg QD, fed, Day 8, Table 6, actual times after QC

C=CC(=O)Nc1cc(N2CCN(CC)CC2)ccc1Nc1cc(N(C)C(=O)Nc2c(Cl)c(OC)cc(OC)c2Cl)ncn1 [H3B-6527, N-(2-((6-(3-(2,6-dichloro-3,5-dimethoxyphenyl)-1-methylureido)pyrimidin-4-yl)amino)-5-(4-ethylpiperazin-1-yl)phenyl)acrylamide]
Tmax (600 mg, 600 mg QD, fed, Day 8, Table 5, nominal times, read-out: Tmax, median (min-max)): 4.52 h | AUC [1]: 501 ng·h/mL | Cmax [1]: 99.6 ng/mL | half-life (600 mg, 600 mg QD, fed, Day 8, Table 6, actual times after QC, read-out: Half-life, geometric mean (CV%) (converted)): 5.88 h | Tmax (600 mg, 600 mg QD, fed, Day 8, Table 6, actual times after QC, read-out: Tmax, median (min-max)): 4.52 h | Cmax (700 mg, 700 mg BID, fed, Day 1, Table 5, nominal times): 163 ng/mL | half-life (700 mg, 700 mg BID, fed, Day 1, Table 5, nominal times, read-out: Half-life, geometric mean (CV%) (converted)): 2.1 h | Tmax (700 mg, 700 mg BID, fed, Day 1, Table 5, nominal times, read-out: Tmax, median (min-max)): 2.02 h | AUC [2]: 591 ng·h/mL | Cmax [2]: 163 ng/mL | half-life (700 mg, 700 mg BID, fed, Day 1, Table 6, actual times after QC, read-out: Half-life, geometric mean (CV%) (converted)): 2.13 h | Tmax (700 mg, 700 mg BID, fed, Day 1, Table 6, actual times after QC, read-out: Tmax, median (min-max)): 2.02 h | Cmax (700 mg, 700 mg BID, fed, Day 8, Table 5, nominal times): 167 ng/mL | half-life (700 mg, 700 mg BID, fed, Day 8, Table 5, nominal times, read-out: Half-life, geometric mean (CV%) (converted)): 2.2 h | Tmax (700 mg, 700 mg BID, fed, Day 8, Table 5, nominal times, read-out: Tmax, median (min-max)): 4.12 h | AUC [3]: 639 ng·h/mL | Cmax [3]: 167 ng/mL | half-life (700 mg, 700 mg BID, fed, Day 8, Table 6, actual times after QC, read-out: Half-life, geometric mean (CV%) (converted)): 2.18 h | Tmax (700 mg, 700 mg BID, fed, Day 8, Table 6, actual times after QC, read-out: Tmax, median (min-max)): 4.12 h | Cmax (1000 mg, 1000 mg QD, fasted, Day 1, Table 5, nominal times): 146 ng/mL | half-life (1000 mg, 1000 mg QD, fasted, Day 1, Table 5, nominal times, read-out: Half-life, geometric mean (CV%) (converted)): 4.5 h | Tmax (1000 mg, 1000 mg QD, fasted, Day 1, Table 5, nominal times, read-out: Tmax, median (min-max)): 2.01 h | AUC [4]: 854 ng·h/mL | Cmax [4]: 225 ng/mL | half-life (1000 mg, 1000 mg QD, fasted, Day 1, Table 6, actual times after QC, read-out: Half-life, geometric mean (CV%) (converted)): 4.48 h | Tmax (1000 mg, 1000 mg QD, fasted, Day 1, Table 6, actual times after QC, read-out: Tmax, median (min-max)): 2.02 h | Cmax (1000 mg, 1000 mg QD, fasted, Day 8, Table 5, nominal times): 197 ng/mL | half-life (1000 mg, 1000 mg QD, fasted, Day 8, Table 5, nominal times, read-out: Half-life, geometric mean (CV%) (converted)): 4.5 h | Tmax (1000 mg, 1000 mg QD, fasted, Day 8, Table 5, nominal times, read-out: Tmax, median (min-max)): 2.02 h | AUC [5]: 839 ng·h/mL | Cmax [5]: 187 ng/mL | half-life (1000 mg, 1000 mg QD, fasted, Day 8, Table 6, actual times after QC, read-out: Half-life, geometric mean (CV%) (converted)): 4.84 h | Tmax (1000 mg, 1000 mg QD, fasted, Day 8, Table 6, actual times after QC, read-out: Tmax, median (min-max)): 2 h | Cmax (1000 mg, 1000 mg QD, fed, Day 1, Table 5, nominal times): 188 ng/mL | half-life (1000 mg, 1000 mg QD, fed, Day 1, Table 5, nominal times, read-out: Half-life, geometric mean (CV%) (converted)): 4 h | Tmax (1000 mg, 1000 mg QD, fed, Day 1, Table 5, nominal times, read-out: Tmax, median (min-max)): 5.05 h | AUC [6]: 1120 ng·h/mL | Cmax [6]: 182 ng/mL | half-life (1000 mg, 1000 mg QD, fed, Day 1, Table 6, actual times after QC, read-out: Half-life, geometric mean (CV%) (converted)): 3.94 h | Tmax (1000 mg, 1000 mg QD, fed, Day 1, Table 6, actual times after QC, read-out: Tmax, median (min-max)): 6 h | Cmax (1000 mg, 1000 mg QD, fed, Day 8, Table 5, nominal times): 199 ng/mL | half-life (1000 mg, 1000 mg QD, fed, Day 8, Table 5, nominal times, read-out: Half-life, geometric mean (CV%) (converted)): 4.2 h | Tmax (1000 mg, 1000 mg QD, fed, Day 8, Table 5, nominal times, read-out: Tmax, median (min-max)): 4.08 h | AUC [7]: 796 ng·h/mL | Cmax [7]: 177 ng/mL | half-life (1000 mg, 1000 mg QD, fed, Day 8, Table 6, actual times after QC, read-out: Half-life, geometric mean (CV%) (converted)): 6.16 h | Tmax (1000 mg, 1000 mg QD, fed, Day 8, Table 6, actual times after QC, read-out: Tmax, median (min-max)): 2 h | half-life (1000 mg, following administration of 1000 mg (fasted), read-out: mean terminal half-life): 4 to 5 h | Cmax (1400 mg, 1400 mg QD, fasted, Day 1, Table 5, nominal times): 136 ng/mL | half-life (1400 mg, 1400 mg QD, fasted, Day 1, Table 5, nominal times, read-out: Half-life, geometric mean (CV%) (converted)): 5.3 h | Tmax (1400 mg, 1400 mg QD, fasted, Day 1, Table 5, nominal times, read-out: Tmax, median (min-max)): 1 h | AUC [8]: 400 ng·h/mL | Cmax [8]: 136 ng/mL | half-life (1400 mg, 1400 mg QD, fasted, Day 1, Table 6, actual times after QC, read-out: Half-life, geometric mean (CV%) (converted)): 6.13 h | Tmax (1400 mg, 1400 mg QD, fasted, Day 1, Table 6, actual times after QC, read-out: Tmax, median (min-max)): 1 h | Cmax (1400 mg, 1400 mg QD, fasted, Day 8, Table 5, nominal times): 362 ng/mL | half-life (1400 mg, 1400 mg QD, fasted, Day 8, Table 5, nominal times, read-out: Half-life, geometric mean (CV%) (converted)): 4.9 h | Tmax (1400 mg, 1400 mg QD, fasted, Day 8, Table 5, nominal times, read-out: Tmax, median (min-max)): 2.1 h | AUC [9]: 1260 ng·h/mL | Cmax [9]: 362 ng/mL | half-life (1400 mg, 1400 mg QD, fasted, Day 8, Table 6, actual times after QC, read-out: Half-life, geometric mean (CV%) (converted)): 4.56 h | Tmax (1400 mg, 1400 mg QD, fasted, Day 8, Table 6, actual times after QC, read-out: Tmax, median (min-max)): 2.1 h | Cmax (1400 mg, 1400 mg QD, fed, Day 1, Table 5, nominal times): 904 ng/mL | half-life (1400 mg, 1400 mg QD, fed, Day 1, Table 5, nominal times, read-out: Half-life, geometric mean (CV%) (converted)): 4.1 h | Tmax (1400 mg, 1400 mg QD, fed, Day 1, Table 5, nominal times, read-out: Tmax, median (min-max)): 5 h | AUC [10]: 5670 ng·h/mL | Cmax [10]: 904 ng/mL | half-life (1400 mg, 1400 mg QD, fed, Day 1, Table 6, actual times after QC, read-out: Half-life, geometric mean (CV%) (converted)): 4.13 h | Tmax (1400 mg, 1400 mg QD, fed, Day 1, Table 6, actual times after QC, read-out: Tmax, median (min-max)): 5 h | Cmax (1400 mg, 1400 mg QD, fed, Day 8, Table 5, nominal times): 827 ng/mL | half-life (1400 mg, 1400 mg QD, fed, Day 8, Table 5, nominal times, read-out: Half-life, geometric mean (CV%) (converted)): 4.4 h | Tmax (1400 mg, 1400 mg QD, fed, Day 8, Table 5, nominal times, read-out: Tmax, median (min-max)): 5.86 h | AUC [11]: 5450 ng·h/mL | Cmax [11]: 827 ng/mL | half-life (1400 mg, 1400 mg QD, fed, Day 8, Table 6, actual times after QC, read-out: Half-life, geometric mean (CV%) (converted)): 4.75 h | Tmax (1400 mg, 1400 mg QD, fed, Day 8, Table 6, actual times after QC, read-out: Tmax, median (min-max)): 5.86 h | Cmax (2000 mg, 2000 mg QD, fed, Day 1, Table 5, nominal times): 525 ng/mL | half-life (2000 mg, 2000 mg QD, fed, Day 1, Table 5, nominal times, read-out: Half-life, geometric mean (CV%) (converted)): 5.5 h | Tmax (2000 mg, 2000 mg QD, fed, Day 1, Table 5, nominal times, read-out: Tmax, median (min-max)): 2 h | AUC [12]: 2950 ng·h/mL | Cmax [12]: 540 ng/mL | half-life (2000 mg, 2000 mg QD, fed, Day 1, Table 6, actual times after QC, read-out: Half-life, geometric mean (CV%) (converted)): 4.14 h | Tmax (2000 mg, 2000 mg QD, fed, Day 1, Table 6, actual times after QC, read-out: Tmax, median (min-max)): 2.1 h | Cmax (2000 mg, 2000 mg QD, fed, Day 8, Table 5, nominal times): 451 ng/mL | half-life (2000 mg, 2000 mg QD, fed, Day 8, Table 5, nominal times, read-out: Half-life, geometric mean (CV%) (converted)): 5.7 h | Tmax (2000 mg, 2000 mg QD, fed, Day 8, Table 5, nominal times, read-out: Tmax, median (min-max)): 2.5 h | AUC [13]: 2580 ng·h/mL | Cmax [13]: 502 ng/mL | half-life (2000 mg, 2000 mg QD, fed, Day 8, Table 6, actual times after QC, read-out: Half-life, geometric mean (CV%) (converted)): 4.98 h | Tmax (2000 mg, 2000 mg QD, fed, Day 8, Table 6, actual times after QC, read-out: Tmax, median (min-max)): 4 h | Tmax (fasted, read-out: median plasma tmax): 1 to 3 h
